# Reference: patent publication US11472811B2, “Pyrazolotriazolopyrimidine derivatives as A2A receptor antagonist” (BEIGENE, LTD., priority 2018, dated 2022)
# Molecular target: human A2A receptor (A2AR) (Homo sapiens (Human), UniProt P29274)
# Test: Luciferase reporter assay (HEK293-A2AR-luc2p/CRE/Hygro cells)
# Format: cell-based
# Details: 3 nM CGS21680, 5 h incubation
# Summary of the method: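 Antagonism was scored as inhibition of CRE-luciferase signal driven by 3 nM CGS21680 (=100%) during a 5 h treatment with compound at 0.1–10000 nM. The line was HEK293 stably carrying human A2AR and luc2P/CRE, preincubated 18 h in 1% FBS containing 1 U/mL ADA. IC50 came from the dose-response curve.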
# Sequence of human A2A receptor (A2AR) (P29274 whole entry): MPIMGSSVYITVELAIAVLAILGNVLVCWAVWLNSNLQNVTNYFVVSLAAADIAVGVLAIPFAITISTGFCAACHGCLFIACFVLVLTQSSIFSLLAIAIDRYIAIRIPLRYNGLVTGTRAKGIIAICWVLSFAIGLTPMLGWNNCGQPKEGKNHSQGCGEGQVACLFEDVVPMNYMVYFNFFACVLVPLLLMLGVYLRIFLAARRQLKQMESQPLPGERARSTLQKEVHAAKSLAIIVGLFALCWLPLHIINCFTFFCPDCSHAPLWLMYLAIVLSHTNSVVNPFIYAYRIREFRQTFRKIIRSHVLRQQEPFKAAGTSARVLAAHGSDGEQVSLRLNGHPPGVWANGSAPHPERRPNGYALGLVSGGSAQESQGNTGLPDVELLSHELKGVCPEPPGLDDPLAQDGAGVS
row,SMILES,IC50 [nM]
1,"Cc1cccc(C(C)(C(=O)NCC2(O)COC2)n2ncc3c2nc(N)n2nc(-c4ccco4)nc32)c1 (stereo not shown) [Example 85, 2-(5-amino-2-(furan-2-yl)-7H-pyrazolo[4,3-e][1,2,4]triazolo[1,5-c]pyrimidin-7-yl)-N-((3-hydroxyoxetan-3-yl)methyl)-2-(m-tolyl)propanamide]",7.3
2,"COc1ccc(C(C)(C(=O)NCC2(O)COC2)n2ncc3c2nc(N)n2nc(-c4ccco4)nc32)cc1 (stereo not shown) [Example 86, 2-(5-amino-2-(furan-2-yl)-7H-pyrazolo[4,3-e][1,2,4]triazolo[1,5-c]pyrimidin-7-yl)-N-((3-hydroxyoxetan-3-yl)methyl)-2-(4-methoxyphenyl)propanamide]",85.9
3,"Nc1nc2c(cnn2C(C(=O)N[C@@H]2CCC[C@@H]2O)c2ccccc2)c2nc(-c3ccco3)nn12 (stereo partly drawn) [Example 90, 2-(5-amino-2-(furan-2-yl)-7H-pyrazolo[4,3-e][1,2,4]triazolo[1,5-c]pyrimidin-7-yl)-N-((1R,2S)-2-hydroxycyclopentyl)-2-phenylacetamide]",6.9
4,"Nc1nc2c(cnn2C2(C(=O)NCC3(O)COC3)CCCc3ccccc32)c2nc(-c3ccco3)nn12 (stereo not shown) [Example 93, 1-(5-amino-2-(furan-2-yl)-7H-pyrazolo[4,3-e][1,2,4]triazolo[1,5-c]pyrimidin-7-yl)-N-((3-hydroxyoxetan-3-yl)methyl)-1,2,3,4-tetrahydronaphthalene-1-carboxamide]",3.8
5,"CC(C(=O)N[C@@H]1CC[C@@H](O)C1)(c1ccccc1)n1ncc2c1nc(N)n1nc(-c3ccco3)nc21 (stereo partly drawn) [Example 94, 2-(5-amino-2-(furan-2-yl)-7H-pyrazolo[4,3-e][1,2,4]triazolo[1,5-c]pyrimidin-7-yl)-N-((1R,3R)-3-hydroxycyclopentyl)-2-phenylpropanamide]",11.2
6,"C[C@]1(O)CC[C@H](NC(=O)C(c2ccccc2)n2ncc3c2nc(N)n2nc(-c4ccco4)nc32)CC1 (stereo partly drawn) [Example 96, 2-(5-amino-2-(furan-2-yl)-7H-pyrazolo[4,3-e][1,2,4]triazolo[1,5-c]pyrimidin-7-yl)-(cis)-N-(4-hydroxy-4-methylcyclohexyl)-2-phenylacetamide]",7.5
7,"CC(C(=O)NCC1CCOCC1)(c1ccccc1)n1ncc2c1nc(N)n1nc(-c3ccco3)nc21 (stereo not shown) [Example 97, 2-(5-amino-2-(furan-2-yl)-7H-pyrazolo[4,3-e][1,2,4]triazolo[1,5-c]pyrimidin-7-yl)-2-phenyl-N-((tetrahydro-2H-pyran-4-yl)methyl)propenamide]",10.4
8,"CC(C(=O)NC1CCOCC1)(c1ccccc1)n1ncc2c1nc(N)n1nc(-c3ccco3)nc21 (stereo not shown) [Example 98, 2-(5-amino-2-(furan-2-yl)-7H-pyrazolo[4,3-e][1,2,4]triazolo[1,5-c]pyrimidin-7-yl)-2-phenyl-N-(tetrahydro-2H-pyran-4-yl)propanamide]",19.2
9,"C[C@](C(=O)N[C@H]1C[C@H](O)C1)(c1ccccc1)n1ncc2c1nc(N)n1nc(-c3ccco3)nc21 [Example 102B, (R)-2-(5-amino-2-(furan-2-yl)-7H-pyrazolo[4,3-e][1,2,4]triazolo[1,5-c]pyrimidin-7-yl)-(trans)-N-(3-hydroxycyclobutyl)-2-phenylpropanamide]",10.7
10,"CCC(C(=O)NCC1(O)COC1)(c1ccccc1)n1ncc2c1nc(N)n1nc(-c3ccco3)nc21 (stereo not shown) [Example 103, 2-(5-amino-2-(furan-2-yl)-7H-pyrazolo[4,3-e][1,2,4]triazolo[1,5-c]pyrimidin-7-yl)-N-((3-hydroxyoxetan-3-yl)methyl)-2-phenylbutanamide]",6.1
11,"C[C@](C(=O)N[C@H]1C[C@@H](O)C1)(c1ccccc1)n1ncc2c1nc(N)n1nc(-c3ccco3)nc21 [Example 104B, (R)-2-(5-amino-2-(furan-2-yl)-7H-pyrazolo[4,3-e][1,2,4]triazolo[1,5-c]pyrimidin-7-yl)-(cis)-N-(3-hydroxycyclobutyl)-2-phenylpropanamide]",9.1
12,"CC(C(=O)N[C@H]1COC[C@@H]1O)(c1ccccc1)n1ncc2c1nc(N)n1nc(-c3ccco3)nc21 (stereo partly drawn) [Example 106, 2-(5-amino-2-(furan-2-yl)-7H-pyrazolo[4,3-e][1,2,4]triazolo[1,5-c]pyrimidin-7-yl)-N-((3S,4R)-4-hydroxytetrahydrofuran-3-yl)-2-phenylpropanamide]",50.9
13,"C[C@](C(=O)N[C@H]1COC[C@@H]1O)(c1ccccc1)n1ncc2c1nc(N)n1nc(-c3ccco3)nc21 [Example 106B, (R)-2-(5-amino-2-(furan-2-yl)-7H-pyrazolo[4,3-e][1,2,4]triazolo[1,5-c]pyrimidin-7-yl)-N-((3S,4R)-4-hydroxytetrahydrofuran-3-yl)-2-phenylpropanamide]",41.7
14,"C[C@](C(=O)N[C@H]1COC[C@H]1O)(c1ccccc1)n1ncc2c1nc(N)n1nc(-c3ccco3)nc21 [Example 107B, (R)-2-(5-amino-2-(furan-2-yl)-7H-pyrazolo[4,3-e][1,2,4]triazolo[1,5-c]pyrimidin-7-yl)-N-((3S,4S)-4-hydroxytetrahydrofuran-3-yl)-2-phenylpropanamide]",32.2

# More lines, in order of falling IC50, values ahead:
row,IC50 [nM],SMILES
1,767,"CC(C(=O)NCC1(O)COC1)(c1cccnc1)n1ncc2c1nc(N)n1nc(-c3ccco3)nc21 (stereo not shown) [Example 89, 2-(5-amino-2-(furan-2-yl)-7H-pyrazolo[4,3-e][1,2,4]triazolo[1,5-c]pyrimidin-7-yl)-N-((3-hydroxyoxetan-3-yl)methyl)-2-(pyridin-3-yl)propanamide]"
2,437,"CC(C(=O)NCC1(O)CC1)(c1ccccc1)n1ncc2c1nc(N)n1nc(-c3ccco3)nc21 (stereo not shown) [Example 88, 2-(5-amino-2-(furan-2-yl)-7H-pyrazolo[4,3-e][1,2,4]triazolo[1,5-c]pyrimidin-7-yl)-N-((1-hydroxycyclopropyl)methyl)-2-phenylpropanamide]"
3,76.3,"CC(C(=O)N[C@H]1COC[C@H]1O)(c1ccccc1)n1ncc2c1nc(N)n1nc(-c3ccco3)nc21 (stereo partly drawn) [Example 107, 2-(5-amino-2-(furan-2-yl)-7H-pyrazolo[4,3-e][1,2,4]triazolo[1,5-c]pyrimidin-7-yl)-N-((3S,4S)-4-hydroxytetrahydrofuran-3-yl)-2-phenylpropanamide]"
4,35.1,"CC(C(=O)NC1CCNCC1)(c1ccccc1)n1ncc2c1nc(N)n1nc(-c3ccco3)nc21 (stereo not shown) [Example 101, 2-(5-amino-2-(furan-2-yl)-7H-pyrazolo[4,3-e][1,2,4]triazolo[1,5-c]pyrimidin-7-yl)-2-phenyl-N-(piperidin-4-yl)propanamide]"
5,18.2,"CC(C(=O)N[C@H]1C[C@@H](O)C1)(c1ccccc1)n1ncc2c1nc(N)n1nc(-c3ccco3)nc21 (stereo partly shown) [Example 104, 2-(5-amino-2-(furan-2-yl)-7H-pyrazolo[4,3-e][1,2,4]triazolo[1,5-c]pyrimidin-7-yl)-N-((1s,3s)-3-hydroxycyclobutyl)-2-phenylpropanamide]"
6,15.1,"Nc1nc2c(cnn2C(C(=O)N[C@H]2CCCC[C@H]2O)c2ccccc2)c2nc(-c3ccco3)nn12 (stereo partly drawn) [Example 91, 2-(5-amino-2-(furan-2-yl)-7H-pyrazolo[4,3-e][1,2,4]triazolo[1,5-c]pyrimidin-7-yl)-N-((1S,2R)-2-hydroxycyclohexyl)-2-phenylacetamide]"
7,12,"CC(C(=O)NC1CCCC(O)C1)(c1ccccc1)n1ncc2c1nc(N)n1nc(-c3ccco3)nc21 (stereo not shown) [Example 99, 2-(5-amino-2-(furan-2-yl)-7H-pyrazolo[4,3-e][1,2,4]triazolo[1,5-c]pyrimidin-7-yl)-N-(3-hydroxycyclohexyl)-2-phenylpropanamide]"
8,11.8,"CC(C(=O)N[C@@H]1CNC(=O)C1)(c1ccccc1)n1ncc2c1nc(N)n1nc(-c3ccco3)nc21 (stereo partly drawn) [Example 100, 2-(5-amino-2-(furan-2-yl)-7H-pyrazolo[4,3-e][1,2,4]triazolo[1,5-c]pyrimidin-7-yl)-N—((S)-5-oxopyrrolidin-3-yl)-2-phenylpropanamide]"
9,10.7,"CC(C(=O)N[C@H]1C[C@@](C)(O)C1)(c1ccccc1)n1ncc2c1nc(N)n1nc(-c3ccco3)nc21 (stereo partly drawn) [Example 105, 2-(5-amino-2-(furan-2-yl)-7H-pyrazolo[4,3-e][1,2,4]triazolo[1,5-c]pyrimidin-7-yl)-N-((1S,3S)-3-hydroxy-3-methylcyclobutyl)-2-phenylpropanamide]"
10,9.5,"CC(C(=O)N[C@H]1CC[C@H](O)C1)(c1ccccc1)n1ncc2c1nc(N)n1nc(-c3ccco3)nc21 (stereo partly drawn) [Example 95, 2-(5-amino-2-(furan-2-yl)-7H-pyrazolo[4,3-e][1,2,4]triazolo[1,5-c]pyrimidin-7-yl)-N-((1S,3S)-3-hydroxycyclopentyl)-2-phenylpropanamide]"
11,4.9,"CC(C(=O)NCC1(O)COC1)(c1ccccc1F)n1ncc2c1nc(N)n1nc(-c3ccco3)nc21 (stereo not shown) [Example 87, 2-(5-amino-2-(furan-2-yl)-7H-pyrazolo[4,3-e][1,2,4]triazolo[1,5-c]pyrimidin-7-yl)-2-(2-fluorophenyl)-N-((3-hydroxyoxetan-3-yl)methyl)propanamide]"
12,3,"Cc1cccc(CNC(=O)C(C)(c2ccccc2)n2ncc3c2nc(N)n2nc(-c4ccco4)nc32)n1 (stereo not shown) [Example 108, 2-(5-amino-2-(furan-2-yl)-7H-pyrazolo[4,3-e][1,2,4]triazolo[1,5-c]pyrimidin-7-yl)-N-((6-methylpyridin-2-yl)methyl)-2-phenylpropanamide]"
13,2.5,"Cc1cccc(CNC(=O)[C@@](C)(c2ccccc2)n2ncc3c2nc(N)n2nc(-c4ccco4)nc32)n1 [Example 108B, (R)-2-(5-amino-2-(furan-2-yl)-7H-pyrazolo[4,3-e][1,2,4]triazolo[1,5-c]pyrimidin-7-yl)-N-((6-methylpyridin-2-yl)methyl)-2-phenylpropanamide]"
14,1,"Cc1ccc(CNC(=O)C(C)(c2ccccc2)n2ncc3c2nc(N)n2nc(-c4ccco4)nc32)nc1 (stereo not shown) [Example 109, 2-(5-amino-2-(furan-2-yl)-7H-pyrazolo[4,3-e][1,2,4]triazolo[1,5-c]pyrimidin-7-yl)-N-((5-methylpyridin-2-yl)methyl)-2-phenylpropanamide]"
